# Results published in patent US4428943A, “(N-Phosphonacetyl-L-aspartato) (1,2-diaminocyclohexane)platinum(II) or alkali metal salt” (priority 1981, dated 1984).
# Legend:
# [1] = test system: Ehrlich ascites carcinoma; test: Survival times of BDF1 mice bearing the Ehrlich ascites carcinoma; assay type: in vivo; settings: Day 1 only; for T/C × 100: treated/control survival time
# Source text: In addition to testing with L1210 leukemia, satisfactory responses against tests by additional animal cancer organisms have been shown as, for example, Ehrlich ascites tumor, melanoma B-16 and Colon 38. Testing was achieved using either the alkali metal (sodium) salt or the free acid.
# Mice received an intraperitoneal inoculation of 10^7 tumor cells on Day 0; treatment was by the intraperitoneal route on Day 1 only. NSC-314926 [N-phosphonacetyl-L-aspartato(1,2-diaminocyclohexane)platinum(II)] was dissolved in 5% dextrose solution. There were 10 mice per group.
# Solubility [2] = assay type: physicochemical
# Protocol: One ml of each of the following solvents dissolved approximately 2 mg of Pt-268: […]
# L1210 cells = test: Combination of Pt-268 with cisplatin in mice bearing L1210 leukemia (FIG. 4); assay type: in vivo, BDF1 mice; settings: 5 mg/kg on Day 3, alone
# Protocol: Mice were given an inoculum of 10^6 L1210 cells.
# With reference to FIG. 4, BDF1 mice were given an inoculum of 10^6 L1210 cells. On Day 3, one grop received NSC-314926, 5 mg/kg. […] Another group received the two drugs in combination on the same schedule.
# L1210 leukemia = test: Survival of mice bearing L1210 leukemia, Pt-268 alone (LD50, optimal dose, therapeutic safety ratio); assay type: in vivo, mice (BDF1)
# Protocol: Mice received 10^6 L1210 cells on Day 0 via intraperitoneal route. Pt-268 was given intraperitoneally on Day 1 only in 5% glucose solution.
# Mice received 10^6 L1210 cells on Day 0 via intraperitoneal route. Pt-268 was given intraperitoneally on Days 1, 5, and 9 in 5% glucose solution.
# The BDF1 mice received 10^6 L1210 leukemia cells by I.P. injection on Day 0 and were divided into groups of 10, including a control group of 40 mice. The treated groups were treated on Day 1 only at different dose levels from 10 mg/kg to 200 mg/kg or treated on Days 1, 5, and 9 at dose levels from 2.5 mg/kg to 50 mg/kg.
# Solubility [3] = assay type: physicochemical; remark: listed apart in the source
substance,measurement,setting,value
"N-phosphonacetyl-L-aspartato(1,2-diaminocyclohexane)platinum(II), Na [Pt-268]",Survival Time,[1]; 5 mg/kg I.P.,16.5 days
same,T/C × 100,[1]; 5 mg/kg I.P.,123
same,Survival Time,[1]; 10 mg/kg I.P.,18.8 days
same,T/C × 100,[1]; 10 mg/kg I.P.,140
same,Survival Time,[1]; 20 mg/kg I.P.,24.3 days
same,T/C × 100,[1]; 20 mg/kg I.P.,181
same,Survival Time,[1]; 40 mg/kg I.P.,25.3 days
same,T/C × 100,[1]; 40 mg/kg I.P.,189
same,Survival Time,[1]; 60 mg/kg I.P.,28.8 days
same,T/C × 100,[1]; 60 mg/kg I.P.,215
same,Survival Time,[1]; 80 mg/kg I.P.,29.0 days
same,T/C × 100,[1]; 80 mg/kg I.P.,216
same,Survival Time,[1]; 100 mg/kg I.P.,31.7 days
same,T/C × 100,[1]; 100 mg/kg I.P.,237
same,Solubility of a 2-mg sample,Solubility [2]; CHCl3,very slightly soluble or insoluble
same,Solubility of a 2-mg sample,Solubility [2]; acetone,very slightly soluble or insoluble
same,Solubility of a 2-mg sample,Solubility [2]; cyclopentanone,very slightly soluble or insoluble
same,Solubility of a 2-mg sample,Solubility [2]; dimethylformamide,very slightly soluble or insoluble
same,Solubility of a 2-mg sample,Solubility [2]; dimethylsulfoxide,very slightly soluble or insoluble
same,Solubility of a 2-mg sample,Solubility [2]; ethanol,very slightly soluble or insoluble
same,Solubility of a 2-mg sample,Solubility [2]; heptane,very slightly soluble or insoluble
same,Solubility of a 2-mg sample,Solubility [2]; t-butanol,very slightly soluble or insoluble
same,Solubility of a 2-mg sample,Solubility [2]; tetrahydrofuran,very slightly soluble or insoluble
same,"effect on median life span, single agent",L1210 cells,hardly effective
same,therapeutic safety ratio (LD50/OptD50),L1210 leukemia; I.P. LD50 / I.P. dose which is 50% of the optimal therapeutic dose,4.5
same,optimal therapeutic dose,"L1210 leukemia; L1210, I.P., Day 1 only, 5% glucose",approximately 80 mg/kg
same,optimal dose,"L1210 leukemia; L1210, I.P., Days 1, 5, and 9, 5% glucose",approximately 20 mg/kg
same,LD50,L1210 leukemia; tumored BDF1 mice (10^6 L1210 cells I.P.),180 mg/kg
same,Solubility in CH3OH,Solubility [3]; CH3OH,~ 0.2 mg/ml
same,Solubility in water,Solubility [3]; water,~ 175 mg/ml
